Laboratory results published in publication PMC4648260 (Chembiochem : a European journal of chemical biology, 2015).

Columns and labels:
RhlR [1] = target: T1, RhlR (Pseudomonas aeruginosa, UniProt P54292); type: cell-based; conditions: for EC50: read-out: EC50 (RhlR agonism), E. coli reporter, dose-response 100 nM – 1 mM; for RhlR-agonistic selectivity over LasR and QscR: criterion: at least 2.5-fold more active in RhlR agonism assays than in LasR and QscR agonism assays at 100 μM
RhlR [2] = target: T1, RhlR; type: cell-based; conditions: E. coli reporter; for Inhibition (%) / % RhlR inhibition: compound at 100 μM in the presence of 10 μM BHL, untreated culture set to 100%, error ±10%, selected data reproduced from ref. [23]
LasR = LasR (Pseudomonas aeruginosa, UniProt P25084); test: LasR antagonism; type: cell-based; conditions: compound at 100 μM against 2 nM OdDHL; untreated culture set to 100%; negative values indicate receptor agonism; error ±10%
Chain of LasR (P25084 whole entry): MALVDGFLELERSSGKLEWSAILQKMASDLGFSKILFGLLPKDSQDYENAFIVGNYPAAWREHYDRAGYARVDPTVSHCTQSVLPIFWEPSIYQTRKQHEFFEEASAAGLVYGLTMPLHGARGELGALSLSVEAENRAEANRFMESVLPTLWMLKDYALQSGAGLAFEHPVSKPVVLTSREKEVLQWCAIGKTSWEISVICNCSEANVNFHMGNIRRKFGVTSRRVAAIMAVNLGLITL

QscR = QscR (Pseudomonas aeruginosa, UniProt G3XD77); conditions: compound at 100 μM against 15 nM OdDHL; untreated culture set to 100%; error ±10%
RhlR [3] = target: T1, RhlR; test: RhlR agonism, P. aeruginosa GFP reporter strain PAO-JP2/prhlI-LVAgfp; type: cell-based; conditions: compound at 100 μM in the presence of 100 nM OdDHL, 900 μM BHL set to 100% activation, error ±10%, selected data reproduced from ref. [23]
RhlR [4] = target: T1, RhlR; test: RhlR antagonism; type: cell-based

T1 sequence (P54292 whole entry): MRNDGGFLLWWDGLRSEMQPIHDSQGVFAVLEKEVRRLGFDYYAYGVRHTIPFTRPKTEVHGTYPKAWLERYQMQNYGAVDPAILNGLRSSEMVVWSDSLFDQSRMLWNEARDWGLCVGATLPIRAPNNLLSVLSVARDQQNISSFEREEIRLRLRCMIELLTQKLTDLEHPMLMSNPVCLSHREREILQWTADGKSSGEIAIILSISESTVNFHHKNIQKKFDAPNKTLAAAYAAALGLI

Row | SMILES | EC50 (RhlR [1]) [µM] | Inhibition (%) / % RhlR inhibition (RhlR [2]) [%] | % LasR inhibition (LasR) [%] | % QscR inhibition (QscR) [%] | RhlR-agonistic selectivity over LasR and QscR (RhlR [1]) | % RhlR activation (RhlR [3]) [%] | further results
1 | CCCC(=O)N[C@H]1CCOC1=O [BHL, N-butanoyl L-homoserine lactone, reference compound] | 11.1 | – | – | – | – | – | –
2 | O=C(Cc1ccccc1)N[C@@H]1CCOC1=O [Compound B4] | – | 66 | 15 | 37 | – | – | –
3 | O=C(Cc1ccccc1)NC1CCOC1=O (stereo not drawn) [Compound C1] | 14.7 | – | – | – | displayed selectivity | 53 | –
4 | O=C(Cc1ccc(F)cc1)NC1CCOC1=O (stereo not drawn) [Compound C2] | 9 | – | – | – | displayed selectivity | 28 | –
5 | O=C(Cc1cccc(F)c1)NC1CCOC1=O (stereo not drawn) [Compound C3] | – | – | – | – | displayed selectivity | 28 | –
6 | O=C(Cc1ccccc1F)N[C@H]1CCOC1=O [Compound C4] | – | – | – | – | displayed selectivity | 24 | –
7 | O=C(Cc1cccc(Cl)c1)NC1CCOC1=O (stereo not drawn) [Compound C6] | 5.5 | – | – | – | displayed selectivity | 26 | –
8 | O=C(Cc1ccc(I)cc1)N[C@H]1CCOC1=O [Compound C10] | – | 84 | 58 | −79 | – | – | Maximum RhlR inhibition (RhlR [2]; antagonism dose curves, highest concentrations tested): near complete RhlR inhibition
9 | O=C(Cc1ccccc1I)NC1CCOC1=O (stereo not drawn) [Compound C12] | – | – | – | – | displayed selectivity | 11 | –
10 | CSc1cccc(CC(=O)N[C@H]2CCOC2=O)c1 [Compound E7] | 6.6 | – | – | – | – | – | –
11 | O=C(Cc1ccc2ccccc2c1)NC1CCOC1=O (stereo not drawn) [Compound E12] | – | 77 | 81 | 60 | – | – | –
12 | O=C(COc1ccc(I)cc1)N[C@H]1CCOC1=O [Compound E22] | – | 74 | −9 | 18 | – | – | fold reduction in potency, P. aeruginosa vs E. coli (RhlR [4]; IC50 67.2 μM in P. aeruginosa vs 17.3 μM in E. coli): ~ 4 fold; % RhlR inhibition (RhlR [4]; P. aeruginosa reporter, compound at 100 μM against 30 μM BHL in the presence of 100 nM OdDHL, cells with 100 nM OdDHL alone set to 100% inhibition, error ±10%): 92%
13 | O=C(CCc1ccccc1)NC1CCOC1=O (stereo not drawn) [Compound E30] | 6.6 | – | – | – | – | – | –
